According to PubChem BioAssay AID298 (DTP/NCI, 2004):
Records with an inconclusive call do not appear.

Tested on: MX-1 breast xenograft, intrarenal, nude mice, tumor weight
Assay: NCI In Vivo Anticancer Drug Screen. Data for tumor model Human Mammary Carcinoma MX-1 Xenograft (intrarenal inoculation) in NU/NU BALB/C (nude) mice
Conditions: endpoint: mean tumor weight change, higher = larger tumour
In short: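 Compounds were given to mice carrying transplanted tumors, and tumor size or survival was measured. Each value is the treated-group measurement (T) divided by the vehicle-treated control-group measurement (C).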

[1] = dose: 12.5 mg/kg/injection, schedule: Q04DX003 (sc), vehicle: water
[2] = dose: 2.0 mg/kg/injection, schedule: Q04DX003 (ip), vehicle: saline

SMILES: O=NN(CCCl)C(=O)NCCO
- T/C (dose: 3.13 mg/kg/injection, schedule: Q04DX003 (sc), vehicle: water): 82 % of control
- T/C (dose: 6.25 mg/kg/injection, schedule: Q04DX003 (sc), vehicle: water): 38 % of control
- T/C [1]: 7 % of control

SMILES: COc1cc(C(C)(C)C)cc(OC)c1C(O)(c1c(OC)cc(C(C)(C)C)cc1OC)c1c(OC)cc(C(C)(C)C)cc1OC
- T/C (dose: 200.0 mg/kg/injection, schedule: Q04DX003 (sc), vehicle: saline with Tween-80): 93 % of control
- T/C (dose: 400.0 mg/kg/injection, schedule: Q04DX003 (sc), vehicle: saline with Tween-80): 88 % of control
- T/C (dose: 800.0 mg/kg/injection, schedule: Q04DX003 (sc), vehicle: saline with Tween-80): 96 % of control
- T/C (dose: 1600.0 mg/kg/injection, schedule: Q04DX003 (sc), vehicle: saline with Tween-80): 100 % of control

SMILES: NC(=S)c1ncn(C2OC(COC=O)C(OC=O)C2OC=O)c1NC=O (stereo not given)
- T/C (dose: 50.0 mg/kg/injection, schedule: Q04DX003 (ip), vehicle: saline with Tween-80): 105 % of control
- T/C (dose: 100.0 mg/kg/injection, schedule: Q04DX003 (ip), vehicle: Klucel (hydroxypropylcellulose) (HPC)): 47 % of control
- T/C (dose: 100.0 mg/kg/injection, schedule: Q04DX003 (ip), vehicle: saline with Tween-80): 103 % of control
- T/C (dose: 200.0 mg/kg/injection, schedule: Q04DX003 (ip), vehicle: Klucel (hydroxypropylcellulose) (HPC)): 31 % of control
- T/C (dose: 200.0 mg/kg/injection, schedule: Q04DX003 (ip), vehicle: saline with Tween-80): 65 % of control
- T/C (dose: 400.0 mg/kg/injection, schedule: Q04DX003 (ip), vehicle: Klucel (hydroxypropylcellulose) (HPC)): 48 % of control
- T/C (dose: 400.0 mg/kg/injection, schedule: Q04DX003 (ip), vehicle: saline with Tween-80): 9 % of control

SMILES: CCC(NC(N)=O)C(CC)NC(N)=O (stereo not given)
- T/C (dose: 6.25 mg/kg/injection, schedule: Q04DX003 (ip), vehicle: saline with Tween-80): 89 % of control
- T/C (dose: 12.5 mg/kg/injection, schedule: Q04DX003 (ip), vehicle: saline with Tween-80): 78 % of control
- T/C (dose: 25.0 mg/kg/injection, schedule: Q04DX003 (ip), vehicle: saline with Tween-80): 74 % of control

SMILES: O=C1N[C@@H]2C(=C[C@H](O)[C@@H](O)[C@H]2O)c2cc3c(c(O)c21)OCO3
- T/C (dose: 1.25 mg/kg/injection, schedule: Q04DX003 (sc), vehicle: saline with Tween-80): 71 % of control

SMILES: CCCCCCCC(=O)OCC(=O)[C@]1(O)Cc2c(O)c3c(c(O)c2[C@@H](OC2CC(N)C(O)C(C)O2)C1)C(=O)c1c(OC)cccc1C3=O (stereo not given in full)
- T/C (dose: 2.0 mg/kg/injection, schedule: Q01DX010 (ip), vehicle: suspension in saline): 4 % of control
- T/C (dose: 2.0 mg/kg/injection, schedule: Q01DX010 (sc), vehicle: saline): 121 % of control
- T/C [2]: 53 % of control
- T/C (dose: 4.0 mg/kg/injection, schedule: Q01DX010 (ip), vehicle: suspension in saline): 5 % of control
- T/C (dose: 4.0 mg/kg/injection, schedule: Q01DX010 (sc), vehicle: saline): 20 % of control
- T/C (dose: 4.0 mg/kg/injection, schedule: Q04DX003 (ip), vehicle: saline): 27 % of control
- T/C (dose: 8.0 mg/kg/injection, schedule: Q01DX010 (sc), vehicle: saline): 2 % of control
- T/C (dose: 8.0 mg/kg/injection, schedule: Q04DX003 (ip), vehicle: saline): 5 % of control

SMILES: CN=S(=O)(OCCCCCOS(=O)(=NC)c1ccc(C)cc1)c1ccc(C)cc1 (stereo not given)
- T/C (dose: 75.0 mg/kg/injection, schedule: Q04DX003 (sc), vehicle: saline with Tween-80): 86 % of control
- T/C (dose: 150.0 mg/kg/injection, schedule: Q04DX003 (sc), vehicle: saline with Tween-80): 61 % of control

SMILES: O=C1C2C3C=CC(C2C(=O)N1CO)C1C2C(=O)N(CO)C(=O)C2C31 (stereo not given)
- T/C (dose: 37.5 mg/kg/injection, schedule: Q04DX003 (ip), vehicle: water): 110 % of control
- T/C (dose: 75.0 mg/kg/injection, schedule: Q04DX003 (ip), vehicle: water): 71 % of control

SMILES: COc1oc(C2C/C(=C/C(C)=C/C(C)=C/C(C)=C/c3ccc([N+](=O)[O-])cc3)CO2)c(C)c(=O)c1C (stereo not given)
- T/C (dose: 1.0 mg/kg/injection, schedule: Q04DX003 (ip), vehicle: saline): 106 % of control
- T/C [2]: 48 % of control

SMILES: COc1cccc2c1C(=O)c1c(O)c3c(c(O)c1C2=O)CC(O)(/C(C)=N/NC(=O)CCCCC(=O)N/N=C(\C)C1(O)Cc2c(O)c4c(c(O)c2C(OC2CC(N)C(O)C(C)O2)C1)C(=O)c1c(OC)cccc1C4=O)CC3OC1CC(N)C(O)C(C)O1 (stereo not given)
- T/C [1]: 41 % of control
- T/C (dose: 25.0 mg/kg/injection, schedule: Q04DX003 (sc), vehicle: water): 5 % of control
- T/C (dose: 50.0 mg/kg/injection, schedule: Q04DX003 (sc), vehicle: water): -56 % of control
